Tests used:
Micrococcus luteus = test: Antibacterial preliminary screening ML; type: cell-based; details: score 0-3; note: key: 0 represents no inhibition; 3 is comparable to commercial antibiotic control
AtIspF = AtIspF (Arabidopsis thaliana, UniProt Q9CAK8); test: University of Hamburg photometric enzymatic inhibition assay AtIspF; type: biochemical; details: read-out: AtIspF IC50
Experimental: (§1) Compounds were subjected to a photometric enzymatic assay to test for inhibition of the plant enzymes Arabidopsis thaliana IspD and IspF, and IspE from Lycopersicon esculentum.
The IspF assay mixture conditions were as follows: 100 mM Tris hydrochloride at pH 8.0 with 10 mM MgCl2, 1 mM dithiothreitol, 2.5 mM potassium phosphoenol pyruvate, 2 mM ATP, 1 mM of 4-diphosphocytidyl-2C methylerythritol 2-phosphate, 460 μM NADH, 1.1% (v/v) DMSO, 0.5 U CMP kinase, 2.4 mU IspF, 1 U lactate dehydrogenase, 1 U pyruvate kinase in 180 μL of solution. Solutions were incubated at 27° C. and monitored photometrically.

[1] = tested on: Burkholderia thailandensis; type: cell-based; details: preliminary screening; for BT score: score 0-3
Escherichia coli = test: Antibacterial preliminary screening EC; type: cell-based; details: score 0-3; note: key: 0 represents no inhibition; 3 is comparable to commercial antibiotic control
AtIspD = AtIspD (Arabidopsis thaliana, UniProt P69834); test: University of Hamburg photometric enzymatic inhibition assay AtIspD; type: biochemical; details: read-out: AtIspD IC50
Chain of AtIspD (P69834 62-302): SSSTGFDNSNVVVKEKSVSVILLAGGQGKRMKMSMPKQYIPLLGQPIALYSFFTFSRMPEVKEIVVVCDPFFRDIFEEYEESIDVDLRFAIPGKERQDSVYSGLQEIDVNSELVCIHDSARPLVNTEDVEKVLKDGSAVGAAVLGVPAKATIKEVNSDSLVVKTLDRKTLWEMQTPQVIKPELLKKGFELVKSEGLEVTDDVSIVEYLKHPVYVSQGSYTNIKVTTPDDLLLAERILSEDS
Experimental: as §1
The procedure for AtIspD enzymatic inhibition assay, was performed by making an assay mixture of 100 mM Tris hydrochloride at pH 8.0 with 10 mM MgCl2, 1 mM dithiothreitol, 2.5 mM potassium phosphoenol pyruvate, 2.1 mM CTP, 2 mM ATP, 1 mM of (2R,3S)-2,3-dihydroxy-4-oxopentyl phosphate, 460 μM NADH, 1.1% (v/v) DMSO, 0.4 U IspE, 1 U lactate dehydrogenase, 1 U pyruvate kinase and 2.4 mU IspD in 180 μL of solution. Solutions were incubated at 27° C. and monitored photometrically. By preparing the assay mixture with a large excess of IspE compared to IspD, any inhibition of IspE by the test inhibitor would be insignificant compared to IspD and therefore the rate of the reaction is determined by IspD activity.

[2] = biological target: Lycopersicon esculentum IspE (LeIspE) (Solanum lycopersicum, UniProt P93841); test: Thermal shift assay against LeIspE; type: binding
Chain of Lycopersicon esculentum IspE (LeIspE) (P93841 89-401): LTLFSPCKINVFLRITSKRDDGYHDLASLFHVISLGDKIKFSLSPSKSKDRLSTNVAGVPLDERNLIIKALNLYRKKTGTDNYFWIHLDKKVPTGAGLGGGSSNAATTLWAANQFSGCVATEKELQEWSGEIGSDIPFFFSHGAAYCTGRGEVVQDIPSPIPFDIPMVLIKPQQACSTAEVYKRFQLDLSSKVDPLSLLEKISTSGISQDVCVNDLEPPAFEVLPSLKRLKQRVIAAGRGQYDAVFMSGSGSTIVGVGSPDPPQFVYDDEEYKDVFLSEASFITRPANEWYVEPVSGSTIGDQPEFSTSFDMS

Bacillus cereus = test: Antibacterial preliminary screening BC; type: cell-based; details: score 0-3; note: key: 0 represents no inhibition; 3 is comparable to commercial antibiotic control
Klebsiella pneumonia = test: Antibacterial preliminary screening KP; type: cell-based; details: score 0-3; note: key: 0 represents no inhibition; 3 is comparable to commercial antibiotic control
LeIspE = LeIspE (Solanum lycopersicum, UniProt P93841); test: University of Hamburg photometric enzymatic inhibition assay LeIspE; type: biochemical, Lycopersicon esculentum; details: read-out: LeIspE IC50
Chain of LeIspE (P93841 89-401): as above
Experimental: as §1
The IspE assay conditions were very similar to the IspD assay in which the assay mixture was composed of 100 mM Tris hydrochloride at pH 8.0 with 10 mM MgCl2, 1 mM dithiothreitol, 2.5 mM potassium phosphoenol pyruvate, 2 mM ATP, 1 mM of 4-Diphosphocytidyl-2-C-methylerythritol, 460 μM NADH, 1.1% (v/v) DMSO, 2.4 mU IspE, 1 U lactate dehydrogenase, 1 U pyruvate kinase in 180 μL of solution. Solutions were incubated at 27° C. and monitored photometrically.

[3] = biological target: T1, Mycobacterium tuberculosis IspD (MtIspD) (Mycobacterium tuberculosis, UniProt P9WKG9); test: Thermal shift assay against MtIspD; type: binding
T1 sequence (P9WKG9 1-231): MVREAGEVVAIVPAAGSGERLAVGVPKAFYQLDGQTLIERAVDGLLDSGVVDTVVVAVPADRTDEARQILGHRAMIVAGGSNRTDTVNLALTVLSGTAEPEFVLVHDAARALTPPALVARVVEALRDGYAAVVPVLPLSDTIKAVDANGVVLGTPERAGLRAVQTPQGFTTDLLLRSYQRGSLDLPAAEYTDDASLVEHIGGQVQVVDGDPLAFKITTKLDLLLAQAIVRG

[4] = tested on: Corynebacterium pseudodiphtheriae; test: Antibacterial preliminary screening CP; type: cell-based; details: score 0-3;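 note: 0 is no inhibition and 3 matches the commercial antibiotic control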
Corynebacterium xerosis = test: Antibacterial preliminary screening CX; type: cell-based; details: score 0-3; note: key: 0 represents no inhibition; 3 is comparable to commercial antibiotic control
lettuce seeds = test: Lettuce leaf assay; type: in vivo; set-up: key: 0 (no effect); 5(complete inhibition or bleaching); details: ranking 0-5
Excerpt: The lettuce leaf assay is a qualitative assay used to determine the relative effectiveness of the test compounds at inhibition of germination of seeds and root development as well as causing bleaching of leaves. Isoprenoid synthesis is vital in plants as isoprene-product gibberellins are a class of growth hormones in plants responsible for stimulating cell elongation and division. In addition, some carotenoids are involved in photosynthesis as components of the electron transport chain. MEP pathway inhibitors have the potential to prevent synthesis of these necessary cellular components and growth hormones resulting in inhibition of germination and root development as well as causing chlorosis, or bleaching in the leaves. The lettuce leaf assay, explores the effects of compounds as potential MEP pathway inhibitors by evaluating the effect on bleaching, root development, and germination of lettuce seeds, which all rely on isoprenoid biosynthesis. […] The assay is a qualitative assay and the effects are given rankings from 0 (no effect) to 5 (complete inhibition or bleaching). In this assay, compounds are dissolved in a volatile organic solvent and applied to filter paper in a petri dish. The solvent is allowed to evaporate and lettuce seeds are applied followed by the addition of 5 mL of water to obtain the necessary concentrations. Seeds are allowed to grow and they are observed on day 3 and day 4 for evaluation.

Pseudomonas aeruginosa = test: Antibacterial preliminary screening PA; type: cell-based; details: score 0-3; note: key: 0 represents no inhibition; 3 is comparable to commercial antibiotic control
Mycobacterium smegmatis = test: Antibacterial preliminary screening MS; type: cell-based; details: for MS score: score 0-3

Chain of AtIspF (Q9CAK8 53-231): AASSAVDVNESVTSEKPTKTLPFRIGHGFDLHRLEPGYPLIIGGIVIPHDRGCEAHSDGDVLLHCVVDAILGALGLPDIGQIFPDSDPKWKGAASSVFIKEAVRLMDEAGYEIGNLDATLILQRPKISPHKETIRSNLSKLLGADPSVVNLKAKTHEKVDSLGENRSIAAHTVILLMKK

SMILES	ML score (Micrococcus luteus)	IC50 (AtIspF)	BT score [1]	EC score (Escherichia coli)	IC50 (AtIspD)	LeIspE melting point change [2]	LeIspE melting temp [2]	BC score (Bacillus cereus)	KP score (Klebsiella pneumonia)	IC50 (LeIspE)	MtIspD melting point change [3]	MtIspD melting temp [3]	melting point	CP score [4]	CX score (Corynebacterium xerosis)	Bleaching (lettuce seeds; 0.15 mM)	Germination (lettuce seeds; 0.15 mM)	Root Dev. (lettuce seeds; 0.15 mM)	PA score (Pseudomonas aeruginosa)	MS score (Mycobacterium smegmatis)	other results
FC(F)(F)c1ccc(-c2nnc(-c3nc4ccccc4[nH]3)o2)cc1 [HGN-422, 2-(1H-benzo[d]imidazol-2-yl)-5-(4-(trifluoromethyl)phenyl)-1,3,4-oxadiazole]	0	> 500 µM	1	0	251 µM	−3.25 °C	46.25 °C	0	0	267 µM	1.0 °C	49.0 °C	275 to 280 °C	0	0	0	0	0	0	1	antibacterial activity against Burkholderia thailandensis [1]: slight antibacterial activity; Bleaching (lettuce seeds; 0.3 mM): 0; Germination (lettuce seeds; 0.3 mM): 0; Root Dev. (lettuce seeds; 0.3 mM): 0; antibacterial activity against Mycobacterium smegmatis (Mycobacterium smegmatis): slight antibacterial activity
Cc1nnc(-c2cc3ccccc3[nH]2)o1 [HGN-209, 2-(1H-indol-2-yl)-5-methyl-1,3,4-oxadiazole]	0	> 1000 µM	0	0	> 1000 µM	−2.25 °C	47.25 °C	0	0	> 1000 µM	1.5 °C	49.5 °C	232 to 234 °C	0	0	–	–	–	0	0	Bleaching (lettuce seeds; 0.5 mM): 0; Germination (lettuce seeds; 0.5 mM): 1; Root Dev. (lettuce seeds; 0.5 mM): 1; Bleaching (lettuce seeds; 1.0 mM): 0; Germination (lettuce seeds; 1.0 mM): 2; Root Dev. (lettuce seeds; 1.0 mM): 1
CCc1nnc(-c2cc3ccccc3[nH]2)o1 [HGN-250, 2-ethyl-5-(1H-indol-2-yl)-1,3,4-oxadiazole]	0	> 1000 µM	0	0	> 1000 µM	−2.75 °C	46.75 °C	0	0	> 1000 µM	0.8 °C	48.8 °C	138 to 143 °C	0	0	–	–	–	0	0	Bleaching (lettuce seeds; 0.5 mM): 0; Germination (lettuce seeds; 0.5 mM): 1; Root Dev. (lettuce seeds; 0.5 mM): 0; Bleaching (lettuce seeds; 1.0 mM): 0; Germination (lettuce seeds; 1.0 mM): 3; Root Dev. (lettuce seeds; 1.0 mM): 0
Clc1cccc(-c2nnc(-c3cc4ccccc4[nH]3)o2)c1 [HGN-241, 2-(3-chlorophenyl)-5-(1H-indol-2-yl)-1,3,4-oxadiazole]	0	> 1000 µM	0	0	> 1000 µM	−1.75 °C	47.75 °C	0	0	149 ± 41 µM	0.5 °C	48.5 °C	202 to 207 °C	0	0	–	–	–	0	0	Bleaching (lettuce seeds; 0.2 mM): 0; Germination (lettuce seeds; 0.2 mM): 1; Root Dev. (lettuce seeds; 0.2 mM): 0
CC(C)(C)c1nnc(-c2cc3ccccc3[nH]2)o1 [HGN-239, 2-(tert-butyl)-5-(1H-indol-2-yl)-1,3,4-oxadiazole]	0	> 1000 µM	0	0	> 1000 µM	−2.50 °C	47.00 °C	0	0	> 1000 µM	–	49.5 °C	163 to 168 °C	0	0	–	–	–	0	0	Bleaching (lettuce seeds; 0.5 mM): 0; Germination (lettuce seeds; 0.5 mM): 0; Root Dev. (lettuce seeds; 0.5 mM): 0; Bleaching (lettuce seeds; 1.0 mM): 0; Germination (lettuce seeds; 1.0 mM): 1; Root Dev. (lettuce seeds; 1.0 mM): 0
Clc1ccc(-c2nnc(-c3nc4ccccc4s3)o2)cc1 [HGN-339, 2-(benzo[d]thiazol-2-yl)-5-(4-chlorophenyl)-1,3,4-oxadiazole]	0	> 500 µM	0	0	158 µM	−2.00 °C	47.50 °C	0	0	> 500 µM	1.3 °C	49.3 °C	161 to 163 °C	0	0	0	0	0	0	0	Bleaching (lettuce seeds; 0.3 mM): 0; Germination (lettuce seeds; 0.3 mM): 0; Root Dev. (lettuce seeds; 0.3 mM): 0
COc1ccc(-c2nnc(-c3nc4ccccc4s3)o2)cc1 [HGN-336, 2-(benzo[d]thiazol-2-yl)-5-(4-methoxyphenyl)-1,3,4-oxadiazole]	0	> 500 µM	0	0	> 500 µM	−1.25 °C	48.25 °C	0	0	493 ± 49 µM	–	49.5 °C	167 to 169 °C	0	0	0	1	0	0	0	Bleaching (lettuce seeds; 0.3 mM): 0; Germination (lettuce seeds; 0.3 mM): 0; Root Dev. (lettuce seeds; 0.3 mM): 0
